The record followed here is patent US20190040083A1 (priority 2016, published 2019).

≈ marks a conversion by molar mass, not a printed value.

In experiment [1] the test system is Klebsiella pneumoniae ATCC 700603. Briefly: microbe, parasite or virus in culture. The experiment is classed as cell-based. As to conditions: ATCC700603.
The subject of experiment [2] is Staphylococcus aureus ATCC 29213. The experiment in a line: microbe, parasite or virus in culture. It is filed as cell-based. The following applies: ATCC29213.
For experiment [3], the system named is Acinetobacter baumannii ATCC 19606. The experiment in a line: microbe, parasite or virus in culture. The experiment is classed as cell-based. The following applies: ATCC19606.
In experiment [4] the test system is Streptococcus pneumoniae ATCC 49619. Briefly: microbe, parasite or virus in culture. The experiment is classed as cell-based. As to conditions: ATCC49619.
Experiment [5] has as its system Enterobacter cloacae NCTC 13406. The experiment in a line: microbe, parasite or virus in culture. It is filed as cell-based. The following applies: NCTC13406.
Experiment [6] has as its system Pseudomonas aeruginosa ATCC 27853. Briefly: microbe, parasite or virus in culture. The following applies: ATCC27853. It is filed as cell-based.
The subject of experiment [7] is Acinetobacter baumannii NCTC 13420. The experiment in a line: microbe, parasite or virus in culture. As to conditions: NCTC13420. It is filed as cell-based.
Experiment [8] relates to Haemophilus influenzae ATCC 49247. The experiment in a line: microbe, parasite or virus in culture. It is filed as cell-based. The following applies: ATCC49247.
The test system of experiment [9] is Escherichia coli ATCC 25922. The experiment in a line: microbe, parasite or virus in culture. As to conditions: ATCC25922. It is filed as cell-based.
The subject of experiment [10] is human hepatic cell line (HepG2 ATCC HB-8065). The experiment in a line: cells. The following applies: HepG2, 24 h, read-out: IC50 (μg/mL) HepG2.

`O=C1COc2ccc(N3C(=O)O[C@H]4CN(CCCn5c(=O)ccc6ccccc65)CC[C@H]43)nc2N1` (relative stereo) [Compound 2, rel-1-{3-[(3aR*,7aS*)-2-oxo-1-{3-oxo-2H,3H,4H-pyrido[3,2-b][1,4]oxazin-6-yl}-octahydro-[1,3]oxazolo[5,4-c]pyridin-5-yl]propyl}-1,2-dihydroquinolin-2-one]: the MIC in experiment [1] is 10 to 100 µg/mL (≈ 21 to 210 µM); in [2], under 1 µg/mL; in experiment [3] it was 1 to 10 µg/mL (≈ 2.1 to 21 µM); in experiment [4], under 1 µg/mL; in experiment [5], 10 to 100 µg/mL (≈ 21 to 210 µM); in [6], 10 to 100 µg/mL (≈ 21 to 210 µM). Further, the MIC was under 1 µg/mL in experiment [7], 1 to 10 µg/mL (≈ 2.1 to 21 µM) in experiment [8] and 1 to 10 µg/mL (≈ 2.1 to 21 µM) in experiment [9]. In experiment [10], the IC50 lay within 10 to 100 µg/mL (≈ 21 to 210 µM).
For `N#Cc1ccc2ccc(=O)n(CCCN3CC[C@@H]4[C@H](C3)OC(=O)N4c3ccc4c(n3)NC(=O)CO4)c2c1` (relative stereo) [Compound 6, rel-1-{3-[(3aR*,7aS*)-2-oxo-1-{3-oxo-2H,3H,4H-pyrido[3,2-b][1,4]oxazin-6-yl}-octahydro-[1,3]oxazolo[5,4-c]pyridin-5-yl]propyl}-2-oxo-1,2-dihydroquinoline-7-carbonitrile], the MIC is 10 to 100 µg/mL (≈ 20 to 200 µM) in experiment [1]; under 1 µg/mL in experiment [2]; 1 to 10 µg/mL (≈ 2 to 20 µM) in experiment [3]; under 1 µg/mL in experiment [4]; 1 to 10 µg/mL (≈ 2 to 20 µM) in experiment [5]; 10 to 100 µg/mL (≈ 20 to 200 µM) in experiment [6]. Besides, the MIC is under 1 µg/mL in experiment [7], 1 to 10 µg/mL (≈ 2 to 20 µM) in experiment [8] and under 1 µg/mL in experiment [9]. In [10], the IC50 was 10 to 100 µg/mL (≈ 20 to 200 µM).
Turning to `COc1ccc2ccc(=O)n(CCCN3CC[C@H]4[C@@H](C3)OC(=O)N4c3ccc4c(n3)NC(=O)CO4)c2n1` (relative stereo) [Compound 7, rel-1-{3-[(3aR*,7aS*)-2-oxo-1-{3-oxo-2H,3H,4H-pyrido[3,2-b][1,4]oxazin-6-yl}-octahydro-[1,3]oxazolo[5,4-c]pyridin-5-yl]propyl}-7-methoxy-1,2-dihydro-1,8-naphthyridin-2-one], the MIC in experiment [1] is 10 to 100 µg/mL (≈ 19.7 to 197 µM); in experiment [2], under 1 µg/mL; in experiment [3] it was under 1 µg/mL; in experiment [4], under 1 µg/mL; in [5] it was 1 to 10 µg/mL (≈ 1.97 to 19.7 µM); in [6] it was 10 to 100 µg/mL (≈ 19.7 to 197 µM). Besides, the MIC in experiment [7], in [8] and in experiment [9] was under 1 µg/mL each time. For the same compound, in experiment [10], the IC50 was in the range of 10 to 100 µg/mL (≈ 19.7 to 197 µM).
Take `COc1ccc2ccc(=O)n(CCCN3CC[C@@H]4[C@@H](C3)OC(=O)N4c3ccc4c(n3)NC(=O)CO4)c2n1` (relative stereo) [Compound 9, rel-1-{3-[(3aR*,7aR*)-2-oxo-1-{3-oxo-2H,3H,4H-pyrido[3,2-b][1,4]oxazin-6-yl}-octahydro-[1,3]oxazolo[5,4-c]pyridin-5-yl]propyl}-7-methoxy-1,2-dihydro-1,8-naphthyridin-2-one]: the MIC is 10 to 100 µg/mL (≈ 19.7 to 197 µM) in [1]; under 1 µg/mL in [2]; under 1 µg/mL in experiment [3]; under 1 µg/mL in [4]; 1 to 10 µg/mL (≈ 1.97 to 19.7 µM) in [5]; 1 to 10 µg/mL (≈ 1.97 to 19.7 µM) in experiment [6]. Besides, the MIC in [7], in experiment [8] and in [9] was under 1 µg/mL each time. Besides, in [10], the IC50 was in the range of 10 to 100 µg/mL (≈ 19.7 to 197 µM).
In the case of `N#Cc1ccc2ccc(=O)n(CCCN3CC[C@@H]4[C@@H](C3)OC(=O)N4c3ccc4c(n3)NC(=O)CO4)c2c1` (relative stereo) [Compound 10, rel-1-{3-[(3aR*,7aR*)-2-oxo-1-{3-oxo-2H,3H,4H-pyrido[3,2-b][1,4]oxazin-6-yl}-octahydro-[1,3]oxazolo[5,4-c]pyridin-5-yl]propyl}-2-oxo-1,2-dihydroquinoline-7-carbonitrile], the MIC is 10 to 100 µg/mL (≈ 20 to 200 µM) in experiment [1]; under 1 µg/mL in experiment [2]; under 1 µg/mL in [3]; under 1 µg/mL in experiment [4]; 1 to 10 µg/mL (≈ 2 to 20 µM) in experiment [5]; 1 to 10 µg/mL (≈ 2 to 20 µM) in [6]. Also, the MIC in experiment [7], in experiment [8] and in experiment [9] was under 1 µg/mL in each case. Besides, in experiment [10], the IC50 fell in the range of 10 to 100 µg/mL (≈ 20 to 200 µM).
